Measurements: ChEMBL document CHEMBL4699460, “Integrating DNA-encoded chemical libraries with virtual combinatorial library screening: Optimizing a PARP10 inhibitor” (Bioorg Med Chem Lett, 2020)

Assays:
[1] = target: T1, Protein mono-ADP-ribosyltransferase PARP8 (Homo sapiens) (UniProt Q8N3A8); assay: (§1) Inhibition of PARP8 (unknown origin) assessed as reduction in NAD+-dependent ADP ribosylation using histone as substrate at 10 uM incubated for 1 hr in presence of biotinylated NAD+ and activated DNA by chemiluminescence based microplate reader assay relative to control
T1 sequence (whole entry): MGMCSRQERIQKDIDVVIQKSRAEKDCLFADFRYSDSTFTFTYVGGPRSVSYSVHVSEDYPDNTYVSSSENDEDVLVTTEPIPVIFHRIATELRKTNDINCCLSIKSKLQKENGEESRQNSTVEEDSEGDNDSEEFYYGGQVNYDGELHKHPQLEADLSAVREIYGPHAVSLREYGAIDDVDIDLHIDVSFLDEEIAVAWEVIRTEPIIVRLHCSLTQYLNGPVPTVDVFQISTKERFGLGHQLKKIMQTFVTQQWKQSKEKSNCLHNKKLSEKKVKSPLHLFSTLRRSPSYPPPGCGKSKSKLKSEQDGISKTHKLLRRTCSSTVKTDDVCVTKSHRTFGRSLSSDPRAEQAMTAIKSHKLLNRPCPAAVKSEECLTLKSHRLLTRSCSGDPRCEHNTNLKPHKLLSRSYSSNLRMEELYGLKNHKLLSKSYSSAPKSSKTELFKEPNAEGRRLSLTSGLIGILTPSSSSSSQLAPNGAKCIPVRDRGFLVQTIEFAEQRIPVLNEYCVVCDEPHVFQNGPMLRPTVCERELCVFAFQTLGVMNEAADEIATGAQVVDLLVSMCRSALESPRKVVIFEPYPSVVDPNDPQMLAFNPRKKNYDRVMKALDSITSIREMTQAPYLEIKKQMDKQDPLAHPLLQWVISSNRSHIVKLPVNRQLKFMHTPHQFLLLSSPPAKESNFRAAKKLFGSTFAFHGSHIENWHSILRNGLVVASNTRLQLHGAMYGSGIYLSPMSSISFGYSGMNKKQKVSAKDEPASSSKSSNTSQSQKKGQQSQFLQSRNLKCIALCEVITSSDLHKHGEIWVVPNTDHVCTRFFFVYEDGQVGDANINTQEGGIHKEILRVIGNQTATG

[2] = target: Protein mono-ADP-ribosyltransferase PARP14 (Homo sapiens) (UniProt Q460N5); assay: as §1, with “N-terminal His-GST tagged human PARP14 (1470 to 1801 residues) expressed in baculovirus infected Sf9 cells” for “PARP8 (unknown origin)”
Sequence of Protein mono-ADP-ribosyltransferase PARP14 (Homo sapiens) (Q460N5 whole entry, the tested form may be a part): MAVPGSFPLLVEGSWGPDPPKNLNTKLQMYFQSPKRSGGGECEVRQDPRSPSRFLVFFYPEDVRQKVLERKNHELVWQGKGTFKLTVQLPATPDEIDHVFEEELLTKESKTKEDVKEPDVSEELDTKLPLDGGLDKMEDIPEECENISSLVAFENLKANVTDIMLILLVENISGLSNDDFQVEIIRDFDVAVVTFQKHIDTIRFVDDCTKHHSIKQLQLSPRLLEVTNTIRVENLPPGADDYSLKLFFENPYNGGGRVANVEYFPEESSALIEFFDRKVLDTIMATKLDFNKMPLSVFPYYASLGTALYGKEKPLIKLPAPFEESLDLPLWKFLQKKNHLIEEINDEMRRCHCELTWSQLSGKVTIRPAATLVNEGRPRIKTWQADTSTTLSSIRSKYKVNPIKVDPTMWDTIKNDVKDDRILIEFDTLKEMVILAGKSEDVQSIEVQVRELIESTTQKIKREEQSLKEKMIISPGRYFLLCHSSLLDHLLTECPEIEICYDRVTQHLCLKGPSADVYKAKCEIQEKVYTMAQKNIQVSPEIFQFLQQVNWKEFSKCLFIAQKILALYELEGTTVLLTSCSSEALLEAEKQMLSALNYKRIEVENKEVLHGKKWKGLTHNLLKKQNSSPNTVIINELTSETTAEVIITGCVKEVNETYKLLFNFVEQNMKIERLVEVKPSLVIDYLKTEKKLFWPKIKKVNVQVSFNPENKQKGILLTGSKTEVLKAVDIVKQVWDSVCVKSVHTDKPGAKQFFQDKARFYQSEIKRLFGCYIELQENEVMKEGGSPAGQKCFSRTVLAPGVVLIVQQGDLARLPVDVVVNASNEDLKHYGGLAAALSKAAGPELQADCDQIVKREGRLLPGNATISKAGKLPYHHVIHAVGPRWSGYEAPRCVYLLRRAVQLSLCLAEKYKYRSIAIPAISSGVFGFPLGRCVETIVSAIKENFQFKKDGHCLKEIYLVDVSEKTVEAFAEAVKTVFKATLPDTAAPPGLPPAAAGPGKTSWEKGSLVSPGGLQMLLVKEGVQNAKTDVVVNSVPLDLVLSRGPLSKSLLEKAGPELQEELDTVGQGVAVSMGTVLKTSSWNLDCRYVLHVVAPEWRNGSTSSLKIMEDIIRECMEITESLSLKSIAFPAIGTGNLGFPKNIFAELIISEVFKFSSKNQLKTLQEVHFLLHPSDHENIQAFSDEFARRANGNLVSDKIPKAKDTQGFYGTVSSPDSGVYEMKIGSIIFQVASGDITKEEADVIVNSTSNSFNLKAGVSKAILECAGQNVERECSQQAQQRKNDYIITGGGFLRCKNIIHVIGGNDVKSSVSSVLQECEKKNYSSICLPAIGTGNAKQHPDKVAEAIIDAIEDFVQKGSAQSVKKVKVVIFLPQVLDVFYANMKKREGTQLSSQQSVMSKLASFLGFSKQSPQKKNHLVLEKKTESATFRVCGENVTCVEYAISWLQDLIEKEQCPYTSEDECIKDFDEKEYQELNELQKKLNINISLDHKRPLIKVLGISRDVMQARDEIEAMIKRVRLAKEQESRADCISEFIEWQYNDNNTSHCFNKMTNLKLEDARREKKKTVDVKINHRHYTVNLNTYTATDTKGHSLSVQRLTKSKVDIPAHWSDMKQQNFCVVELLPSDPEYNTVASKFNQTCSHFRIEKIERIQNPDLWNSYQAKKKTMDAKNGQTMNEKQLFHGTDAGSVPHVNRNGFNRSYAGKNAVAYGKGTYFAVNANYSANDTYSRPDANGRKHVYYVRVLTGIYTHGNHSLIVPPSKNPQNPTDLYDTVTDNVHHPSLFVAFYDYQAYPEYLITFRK

[3] = target: Protein mono-ADP-ribosyltransferase PARP14 (Homo sapiens) (UniProt Q460N5); assay: as §1, with “N-terminal His-GST tagged human PARP14 (1470 to 1801 residues) expressed in baculovirus infected Sf9 cells” for “PARP8 (unknown origin)”, “1” for “10”
[4] = target: T2, Protein mono-ADP-ribosyltransferase PARP10 (Homo sapiens) (UniProt Q53GL7); assay: (§2) Inhibition of N-terminal FLAG-tagged and C-terminal strep-tagged human PARP10 (805 to 1025 residues) expressed in baculovirus infected Sf9 cells assessed as reduction in NAD+-dependent ADP ribosylation using histone as substrate at 1 uM incubated for 1 hr in presence of biotinylated NAD+ and activated DNA by chemiluminescence based microplate reader assay
T2 sequence (whole entry): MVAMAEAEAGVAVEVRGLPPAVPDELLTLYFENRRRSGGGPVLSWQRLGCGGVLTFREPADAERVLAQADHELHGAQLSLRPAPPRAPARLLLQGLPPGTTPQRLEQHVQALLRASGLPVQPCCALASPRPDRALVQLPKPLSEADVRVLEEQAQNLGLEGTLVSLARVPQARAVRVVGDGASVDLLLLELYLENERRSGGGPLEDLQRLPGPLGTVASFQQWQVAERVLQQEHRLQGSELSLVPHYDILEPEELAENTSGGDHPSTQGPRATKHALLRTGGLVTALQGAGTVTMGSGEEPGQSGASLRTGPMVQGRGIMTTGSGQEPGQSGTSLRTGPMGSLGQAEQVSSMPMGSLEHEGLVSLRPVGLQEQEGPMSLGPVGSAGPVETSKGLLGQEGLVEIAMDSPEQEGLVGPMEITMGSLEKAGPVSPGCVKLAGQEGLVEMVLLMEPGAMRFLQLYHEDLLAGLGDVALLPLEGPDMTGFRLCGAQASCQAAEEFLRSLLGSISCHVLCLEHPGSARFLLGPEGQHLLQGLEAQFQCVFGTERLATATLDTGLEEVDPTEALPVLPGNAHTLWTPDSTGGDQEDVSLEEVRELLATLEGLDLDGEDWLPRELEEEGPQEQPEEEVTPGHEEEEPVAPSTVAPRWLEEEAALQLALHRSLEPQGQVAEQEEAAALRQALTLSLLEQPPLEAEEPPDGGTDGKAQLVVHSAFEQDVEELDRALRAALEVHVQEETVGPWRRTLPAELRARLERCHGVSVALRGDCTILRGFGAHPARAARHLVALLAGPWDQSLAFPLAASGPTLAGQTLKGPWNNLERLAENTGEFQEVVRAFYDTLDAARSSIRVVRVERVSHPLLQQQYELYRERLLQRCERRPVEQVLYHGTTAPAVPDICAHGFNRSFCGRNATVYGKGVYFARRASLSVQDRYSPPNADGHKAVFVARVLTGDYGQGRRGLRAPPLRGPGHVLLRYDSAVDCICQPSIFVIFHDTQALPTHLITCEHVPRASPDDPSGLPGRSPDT

[5] = target: T2, Protein mono-ADP-ribosyltransferase PARP10 (Homo sapiens); assay: as §2, with “at 10” for “at 1”, “assay relative to control” for “assay”

inhibition [1]	inhibition [2]	inhibition [3]	inhibition [4]	inhibition [5]	Structure (SMILES)
< 25%	< 25%	–	–	–	CNC(=O)[C@H](CNC(=O)CCc1nc2ccccc2[nH]c1=O)NC(=O)c1ccc2c(c1)CCCC2=O
5%	–	21%	25%	90%	CC1(CNC(=O)COc2cccc3c2CCCC3=O)CCN(C(=O)CCc2nc3ccccc3[nH]c2=O)CC1
